Species on record: Rattus norvegicus
Experiment: DrugMatrix - Regimen: Daily Repeat
Format: toxicity, organism-based, Sprague-Dawley
Design: regimen Daily Repeat, gender Male, age 6-8 weeks
Conditions: in vivo, po, route oral GAVAGE, vehicle .5 % CMC; for ABSOLUTE BASOPHIL / ABSOLUTE EOSINOPHIL / ABSOLUTE LYMPHOCYTE / ABSOLUTE MONOCYTE / ABSOLUTE SEGMENTED NEUTROPHIL / BASOPHIL / EOSINOPHIL / ERYTHROCYTE COUNT / HEMATOCRIT / HEMOGLOBIN / LEUKOCYTE COUNT / LYMPHOCYTE / MEAN CORPUSCULAR HEMOGLOBIN / MEAN CORPUSCULAR HEMOGLOBIN CONCENTRATION / MEAN CORPUSCULAR VOLUME / MONOCYTE / NEUTROPHIL / NUCLEATED RED BLOOD CELLS / PLATELET COUNT: tissue Blood; for ALANINE AMINOTRANSFERASE / ALBUMIN / ALKALINE PHOSPHATASE / ASPARTATE AMINOTRANSFERASE / BLOOD UREA NITROGEN / CARBON DIOXIDE / CHLORIDE / CHOLESTEROL / CREATINE PHOSPHOKINASE / CREATININE / GLUCOSE / LACTATE DEHYDROGENASE / LIPASE / PHOSPHORUS / POTASSIUM / SODIUM / TOTAL BILIRUBIN / TOTAL PROTEIN / URIC ACID: tissue Plasma
[1] = 0 mg/kg, 72 h, dose level Control, time 3 day
[2] = 0 mg/kg, 120 h, dose level Control, time 5 day
[3] = 20 mg/kg, 72 h, dose level Low, time 3 day

NC(=O)N1c2ccccc2CC(=O)c2ccccc21 [OXCARBAZEPINE]
ABSOLUTE BASOPHIL [1]: 0 CELLS/uL | ABSOLUTE EOSINOPHIL [1]: 0 CELLS/uL | ABSOLUTE LYMPHOCYTE [1]: 12269.67 CELLS/uL | ABSOLUTE MONOCYTE [1]: 160.33 CELLS/uL | ABSOLUTE SEGMENTED NEUTROPHIL [1]: 970 CELLS/uL | BASOPHIL [1]: 0% | EOSINOPHIL [1]: 0% | ERYTHROCYTE COUNT [1]: 5.76 x10E6/uL | HEMATOCRIT [1]: 36.57% | HEMOGLOBIN [1]: 14.22 G/DL | LEUKOCYTE COUNT [1]: 13.4 x10E3/uL | LYMPHOCYTE [1]: 91.67% | MEAN CORPUSCULAR HEMOGLOBIN [1]: 24.67 pg | MEAN CORPUSCULAR HEMOGLOBIN CONCENTRATION [1]: 38.85 G/DL | MEAN CORPUSCULAR VOLUME [1]: 63.52 fL | MONOCYTE [1]: 1.17% | NEUTROPHIL [1]: 7.17% | NUCLEATED RED BLOOD CELLS [1]: 0.33 /100WBC | PLATELET COUNT [1]: 1250.83 x10E3/uL | ALANINE AMINOTRANSFERASE [1]: 49.17 u/L | ALBUMIN [1]: 4.33 G/DL | ALKALINE PHOSPHATASE [1]: 378.5 u/L | ASPARTATE AMINOTRANSFERASE [1]: 82.17 u/L | BLOOD UREA NITROGEN [1]: 15 mg/dL | CARBON DIOXIDE [1]: 34.33 mmol/L | CHLORIDE [1]: 99.17 MEQ/L | CHOLESTEROL [1]: 71.17 mg/dL | CREATINE PHOSPHOKINASE [1]: 258.67 u/L | CREATININE [1]: 0.18 mg/dL | GLUCOSE [1]: 142.67 mg/dL | LACTATE DEHYDROGENASE [1]: 154.33 u/L | LIPASE [1]: 9 u/L | PHOSPHORUS [1]: 11.67 mg/dL | POTASSIUM [1]: 7.13 MEQ/L | SODIUM [1]: 142.22 MEQ/L | TOTAL BILIRUBIN [1]: 0.18 mg/dL | TOTAL PROTEIN [1]: 5.77 G/DL | URIC ACID [1]: 1.55 mg/dL | ABSOLUTE BASOPHIL [2]: 0 CELLS/uL | ABSOLUTE EOSINOPHIL [2]: 23.33 CELLS/uL | ABSOLUTE LYMPHOCYTE [2]: 14943.67 CELLS/uL | ABSOLUTE MONOCYTE [2]: 32 CELLS/uL | ABSOLUTE SEGMENTED NEUTROPHIL [2]: 1084.33 CELLS/uL | BASOPHIL [2]: 0% | EOSINOPHIL [2]: 0.17% | ERYTHROCYTE COUNT [2]: 5.71 x10E6/uL | HEMATOCRIT [2]: 35.28% | HEMOGLOBIN [2]: 14.27 G/DL | LEUKOCYTE COUNT [2]: 16.08 x10E3/uL | LYMPHOCYTE [2]: 93% | MEAN CORPUSCULAR HEMOGLOBIN [2]: 25.02 pg | MEAN CORPUSCULAR HEMOGLOBIN CONCENTRATION [2]: 40.43 G/DL | MEAN CORPUSCULAR VOLUME [2]: 61.82 fL | MONOCYTE [2]: 0.17% | NEUTROPHIL [2]: 6.67% | NUCLEATED RED BLOOD CELLS [2]: 0.33 /100WBC | PLATELET COUNT [2]: 1274 x10E3/uL | ALANINE AMINOTRANSFERASE [2]: 54.17 u/L | ALBUMIN [2]: 4.22 G/DL | ALKALINE PHOSPHATASE [2]: 373.17 u/L | ASPARTATE AMINOTRANSFERASE [2]: 81.83 u/L | BLOOD UREA NITROGEN [2]: 16.67 mg/dL | CARBON DIOXIDE [2]: 30.33 mmol/L | CHLORIDE [2]: 99 MEQ/L | CHOLESTEROL [2]: 71 mg/dL | CREATINE PHOSPHOKINASE [2]: 273.5 u/L | CREATININE [2]: 0.22 mg/dL | GLUCOSE [2]: 141.83 mg/dL | LACTATE DEHYDROGENASE [2]: 153.67 u/L | LIPASE [2]: 10.33 u/L | PHOSPHORUS [2]: 11.38 mg/dL | POTASSIUM [2]: 7.08 MEQ/L | SODIUM [2]: 142.75 MEQ/L | TOTAL BILIRUBIN [2]: 0.18 mg/dL | TOTAL PROTEIN [2]: 6.1 G/DL | URIC ACID [2]: 1.67 mg/dL | ABSOLUTE BASOPHIL [3]: 0 CELLS/uL | ABSOLUTE EOSINOPHIL [3]: 39.67 CELLS/uL | ABSOLUTE LYMPHOCYTE [3]: 12910 CELLS/uL | ABSOLUTE MONOCYTE [3]: 169.33 CELLS/uL | ABSOLUTE SEGMENTED NEUTROPHIL [3]: 1314.33 CELLS/uL | BASOPHIL [3]: 0% | EOSINOPHIL [3]: 0.33% | ERYTHROCYTE COUNT [3]: 5.51 x10E6/uL | HEMATOCRIT [3]: 35.53% | HEMOGLOBIN [3]: 14 G/DL | LEUKOCYTE COUNT [3]: 14.43 x10E3/uL | LYMPHOCYTE [3]: 90% | MEAN CORPUSCULAR HEMOGLOBIN [3]: 25.43 pg | MEAN CORPUSCULAR HEMOGLOBIN CONCENTRATION [3]: 39.43 G/DL | MEAN CORPUSCULAR VOLUME [3]: 64.5 fL | MONOCYTE [3]: 1.33% | NEUTROPHIL [3]: 8.33% | NUCLEATED RED BLOOD CELLS [3]: 0.33 /100WBC | PLATELET COUNT [3]: 1357.67 x10E3/uL | ALANINE AMINOTRANSFERASE [3]: 55.67 u/L | ALBUMIN [3]: 4.33 G/DL | ALKALINE PHOSPHATASE [3]: 378.33 u/L | ASPARTATE AMINOTRANSFERASE [3]: 87.67 u/L | BLOOD UREA NITROGEN [3]: 12.67 mg/dL | CARBON DIOXIDE [3]: 27.33 mmol/L | CHLORIDE [3]: 103 MEQ/L | CHOLESTEROL [3]: 73.33 mg/dL | CREATINE PHOSPHOKINASE [3]: 333.33 u/L | CREATININE [3]: 0.24 mg/dL | GLUCOSE [3]: 150.67 mg/dL | LACTATE DEHYDROGENASE [3]: 316 u/L | LIPASE [3]: 10 u/L | PHOSPHORUS [3]: 13.2 mg/dL | POTASSIUM [3]: 7.12 MEQ/L | SODIUM [3]: 146.57 MEQ/L | TOTAL BILIRUBIN [3]: 0.2 mg/dL | TOTAL PROTEIN [3]: 5.93 G/DL | URIC ACID [3]: 2.37 mg/dL
